From ChEMBL document CHEMBL5390264, “Exploring Fatty Acid Mimetics as NR4A Ligands” (J Med Chem, 2023)
Blank lines part the entries; values can stand above or below the compound they belong to. The source made the active and inactive calls. The calls are words filed in the database; no cut-off is given here.

Experiments:
[1] = target: T1, Nuclear receptor subfamily 4 group A member 2 (Homo sapiens, UniProt P43354); experiment: Agonist activity at human Nurr1 LBD transiently transfected in HEK293T cells incubated for 16 hrs by Gal4-hybrid reporter gene based Dual-glo luciferase assay; format: cell-based
T1 sequence (P43354 whole entry, the tested form may be a part): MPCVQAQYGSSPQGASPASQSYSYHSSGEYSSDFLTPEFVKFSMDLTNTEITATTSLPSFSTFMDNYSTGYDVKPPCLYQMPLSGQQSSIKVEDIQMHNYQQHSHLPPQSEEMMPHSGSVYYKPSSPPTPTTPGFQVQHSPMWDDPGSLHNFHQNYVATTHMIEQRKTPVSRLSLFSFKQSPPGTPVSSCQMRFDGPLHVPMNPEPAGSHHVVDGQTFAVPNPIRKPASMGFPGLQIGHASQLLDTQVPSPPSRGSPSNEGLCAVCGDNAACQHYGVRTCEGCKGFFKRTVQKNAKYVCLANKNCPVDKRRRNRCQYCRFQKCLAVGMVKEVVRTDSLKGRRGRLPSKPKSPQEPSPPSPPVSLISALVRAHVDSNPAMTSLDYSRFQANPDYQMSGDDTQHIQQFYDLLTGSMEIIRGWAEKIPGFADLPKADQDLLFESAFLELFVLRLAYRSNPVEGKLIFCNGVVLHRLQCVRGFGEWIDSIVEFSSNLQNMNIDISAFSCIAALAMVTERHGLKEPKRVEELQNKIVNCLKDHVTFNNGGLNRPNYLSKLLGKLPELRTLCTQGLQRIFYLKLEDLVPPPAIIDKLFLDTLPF

[2] = target: T2, Nuclear receptor subfamily 4immunitygroup A member 1 (Homo sapiens, UniProt P22736); experiment: Inverse agonist activity at human Nur77 LBD transiently transfected in HEK293T cells incubated for 16 hrs by Gal4-hybrid reporter gene based Dual-glo luciferase assay; format: cell-based
T2 sequence (P22736 whole entry, the tested form may be a part): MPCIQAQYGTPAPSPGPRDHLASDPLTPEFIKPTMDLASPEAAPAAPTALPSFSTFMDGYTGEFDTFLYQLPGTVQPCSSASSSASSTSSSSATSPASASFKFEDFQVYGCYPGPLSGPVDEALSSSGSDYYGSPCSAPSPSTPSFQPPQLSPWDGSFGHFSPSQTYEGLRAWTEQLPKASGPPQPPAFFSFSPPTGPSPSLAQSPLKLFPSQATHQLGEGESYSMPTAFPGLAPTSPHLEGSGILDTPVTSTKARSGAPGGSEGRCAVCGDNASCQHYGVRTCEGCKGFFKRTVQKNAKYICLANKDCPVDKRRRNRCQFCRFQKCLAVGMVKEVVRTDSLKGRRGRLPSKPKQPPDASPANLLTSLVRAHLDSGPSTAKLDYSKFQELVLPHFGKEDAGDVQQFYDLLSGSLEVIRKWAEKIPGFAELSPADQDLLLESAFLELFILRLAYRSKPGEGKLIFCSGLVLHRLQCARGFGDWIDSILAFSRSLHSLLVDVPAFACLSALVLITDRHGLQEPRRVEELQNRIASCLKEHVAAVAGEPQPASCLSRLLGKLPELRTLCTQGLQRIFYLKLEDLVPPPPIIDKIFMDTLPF

[3] = target: T1, Nuclear receptor subfamily 4 group A member 2; experiment: Inverse agonist activity at human Nurr1 LBD transiently transfected in HEK293T cells incubated for 16 hrs by Gal4-hybrid reporter gene based Dual-glo luciferase assay; format: cell-based
[4] = target: T3, Nuclear receptor subfamily 4 group A member 3 (Homo sapiens, UniProt Q92570); experiment: Inverse agonist activity at human NOR-1 LBD transiently transfected in HEK293T cells incubated for 16 hrs by Gal4-hybrid reporter gene based Dual-glo luciferase assay; format: cell-based
T3 sequence (Q92570 whole entry, the tested form may be a part): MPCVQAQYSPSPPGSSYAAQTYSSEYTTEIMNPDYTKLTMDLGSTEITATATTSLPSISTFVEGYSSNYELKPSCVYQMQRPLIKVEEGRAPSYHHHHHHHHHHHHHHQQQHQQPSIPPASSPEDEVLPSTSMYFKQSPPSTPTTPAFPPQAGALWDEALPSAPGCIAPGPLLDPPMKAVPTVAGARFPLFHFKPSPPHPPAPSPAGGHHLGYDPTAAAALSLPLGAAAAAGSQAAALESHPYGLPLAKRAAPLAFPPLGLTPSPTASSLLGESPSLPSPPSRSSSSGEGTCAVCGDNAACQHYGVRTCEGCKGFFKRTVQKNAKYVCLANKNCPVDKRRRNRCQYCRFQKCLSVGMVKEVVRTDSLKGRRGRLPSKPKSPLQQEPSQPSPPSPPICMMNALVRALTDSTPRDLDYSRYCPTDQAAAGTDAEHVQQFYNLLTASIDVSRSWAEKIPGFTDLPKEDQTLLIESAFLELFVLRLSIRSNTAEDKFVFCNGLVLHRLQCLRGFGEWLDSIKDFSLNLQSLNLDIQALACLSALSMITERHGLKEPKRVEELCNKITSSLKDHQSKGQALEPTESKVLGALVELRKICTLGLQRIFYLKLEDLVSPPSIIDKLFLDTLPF

[5] = target: T2, Nuclear receptor subfamily 4immunitygroup A member 1; experiment: Modulation of human Nur77 LBD transiently transfected in HEK293T cells at 100 to 200 uM incubated for 16 hrs by Gal4-hybrid reporter gene based Dual-glo luciferase assay; format: cell-based; conditions: dose 100-200 µM
[6] = target: T2, Nuclear receptor subfamily 4immunitygroup A member 1; experiment: Agonist activity at human Nur77 LBD transiently transfected in HEK293T cells incubated for 16 hrs by Gal4-hybrid reporter gene based Dual-glo luciferase assay; format: cell-based
[7] = target: T3, Nuclear receptor subfamily 4 group A member 3; experiment: Agonist activity at human NOR-1 LBD transiently transfected in HEK293T cells incubated for 16 hrs by Gal4-hybrid reporter gene based Dual-glo luciferase assay; format: cell-based
[8] = target: T2, Nuclear receptor subfamily 4immunitygroup A member 1; experiment: Agonist activity at human Nur77 LBD transiently transfected in HEK293T cells assessed as maximal activation incubated for 16 hrs by Gal4-hybrid reporter gene based Dual-glo luciferase assay relative to control; format: cell-based; conditions: filed as agonist
[9] = target: T3, Nuclear receptor subfamily 4 group A member 3; experiment: Agonist activity at human NOR-1 LBD transiently transfected in HEK293T cells assessed as maximal activation incubated for 16 hrs by Gal4-hybrid reporter gene based Dual-glo luciferase assay relative to control; format: cell-based; conditions: filed as agonist
[10] = target: T3, Nuclear receptor subfamily 4 group A member 3; experiment: Modulation of human NOR-1 LBD transiently transfected in HEK293T cells at 100 to 200 uM incubated for 16 hrs by Gal4-hybrid reporter gene based Dual-glo luciferase assay; format: cell-based; conditions: dose 100-200 µM
[11] = target: T1, Nuclear receptor subfamily 4 group A member 2; experiment: Binding affinity to recombinant N-terminal 6His-tagged Nurr1 LBD (362 to 598 residues) (unknown origin) expressed in Escherichia coli BL21(DE3)-R3-pRARE2 cells assessed as thermal stability by measuring change in melting temperature at 100 uM by SYPRO orange dye based differential scanning fluorimetry analysis

SMILES: O=C(O)c1cccc(OCc2ccc(F)cc2)c1
- EC50 ([1]; read-out: EC50): 19 µM

SMILES: CSc1nccn1-c1ccc(C(=O)O)cc1
- IC50 [2]: 9 µM
- IC50 [3]: 37 µM
- IC50 [4]: > 100 µM

SMILES: O=C(O)CN(CCO)CCO
- Activity [5]: inactive

SMILES: C/C(=C\C(=O)O)c1ccc(C(F)(F)F)cc1
- EC50 [6]: 28 µM
- EC50 [7]: 36 µM
- EC50 ([1]; read-out: EC50): 76 µM
- Emax [8]: 162%
- Emax [9]: 157%

SMILES: COc1cc(C(=O)O)cc(OC)c1OC
- Activity [5]: inactive

SMILES: CCc1c(C(=O)O)cnn1-c1ccccc1
- EC50 [6]: > 100 µM
- EC50 [7]: 73 µM

SMILES: CCC(Oc1cc(Cl)cc(Cl)c1)C(=O)O (stereo unspecified)
- Activity [5]: inactive

SMILES: O=C(O)CCC(=O)c1ccccc1
- EC50 [6]: > 100 µM
- EC50 [7]: > 100 µM
- EC50 ([1]; read-out: EC50): 90 µM

SMILES: Cn1nnc2c(C(=O)O)ncn2c1=O
- Activity [5]: inactive

SMILES: O=Cc1ccc(C(=O)O)cc1
- Activity [5]: inactive
- Activity [10]: inactive

SMILES: N#Cc1c(F)c(F)cc(C(=O)O)c1F
- IC50 [2]: > 100 µM
- IC50 [4]: > 100 µM

SMILES: O=C(O)c1cccc(OCc2cccc(F)c2)c1
- EC50 ([1]; read-out: EC50): 3 µM

SMILES: O=C(O)C(c1ccccc1)(c1ccccc1)c1ccccc1
- IC50 [2]: > 100 µM
- IC50 [4]: > 100 µM

SMILES: O=C(O)c1ccc(Oc2ccccc2)cc1
- Activity [5]: inactive

SMILES: O=C(O)c1ccc(-c2cccc(F)c2)o1
- EC50 [6]: 9 µM
- EC50 [7]: 6 µM
- EC50 ([1]; read-out: EC50): 6 µM
- Emax [8]: 158%
- Emax [9]: 148%

SMILES: COc1cccc(-c2ccc(NC(=O)C3=C(C(=O)O)CCC3)c(F)c2)c1
- ΔTm [11]: -0.94 °C

SMILES: O=C(O)/C=C/c1ccc(Cl)c(Cl)c1
- Activity [10]: inactive

SMILES: O=C(O)CC(c1ccccc1)c1ccccc1
- Activity [10]: inactive

SMILES: COc1ccccc1CC(=O)O
- Activity [5]: inactive

The remaining lines, values ahead:

- EC50 ([1]; hek293t): Not Determined(Insoluble)
SMILES: O=C(O)c1ccc(OCc2cccc(-c3ccccc3)c2)cc1

- IC50 [2]: 99 µM
- IC50 [3]: > 100 µM
- IC50 [4]: 111 µM
SMILES: O=C(O)c1ccccc1C(=O)c1ccc(Cl)cc1

- IC50 [2]: > 100 µM
- IC50 [4]: > 100 µM
SMILES: O=C(O)c1ccccc1CCc1ccccc1

- EC50 [6]: 0.04 µM
- EC50 [7]: 0.15 µM
SMILES: O=C(O)c1cccc(OCc2ccc(Cl)cc2Cl)c1

- EC50 [6]: 8 µM
- EC50 [7]: 13 µM
- EC50 ([1]; read-out: EC50): 9 µM
- Emax [8]: 158%
- Emax [9]: 166%
SMILES: O=C(O)c1ccc(OCc2ccccc2)cc1

- Activity [5]: inactive
SMILES: O=C(O)c1ccnc2ccccc12

- EC50 ([1]; read-out: EC50): 12 µM
SMILES: O=C(O)c1ccc(OCc2ccc(F)cc2)cc1

- EC50 ([1]; read-out: EC50): 18 µM
SMILES: O=C(O)c1ccc(OCc2cccc(C(F)(F)F)c2)cc1

- EC50 [6]: 48 µM
- EC50 [7]: 56 µM
- EC50 ([1]; read-out: EC50): 54 µM
- Emax [8]: 183%
- Emax [9]: 136%
SMILES: O=C(O)c1cccc2ccccc12 [NAPHTHOIC ACID]

- EC50 ([1]; read-out: EC50): 8 µM
SMILES: O=C(O)c1cccc(OCc2ccccc2)c1

- EC50 ([1]; read-out: EC50): 0.05 µM
SMILES: O=C(O)c1ccc(OCc2ccccc2Cl)cc1

- Activity [10]: inactive
SMILES: CN(C)c1ccc(/N=N/c2ccccc2C(=O)O)cc1

- EC50 ([1]; read-out: EC50): 6 µM
SMILES: O=C(O)c1ccc(OCc2ccc(Cl)cc2)cc1

- EC50 ([1]; read-out: EC50): 3 µM
SMILES: O=C(O)c1cccc(OCc2ccccc2Cl)c1
